Target: T1, TGF-beta receptor type-1 [4-503,T204D] (Homo sapiens, UniProt P36897, T204D)
T1 construct: 4-503
Assay: Enzyme Assay and Luciferase Reporter Assay
Settings: pH 7.5; 30 °C

EC50 [nM]	SMILES
201	Cc1cccc(-c2nn3c(c2-c2ccnc4ccc(OC(F)(F)F)cc24)CCC3)n1 [4-[2-(6-methylpyridin-2-yl)-4H,5H,6H-pyrrolo[1,2-a]pyrazol-3-yl]-6-(trifluoromethoxy)quinoline]
55	Cc1cccc(-c2nn3c(c2-c2ccnc4ccc(Br)cc24)CCC3)n1 [6-bromo-4-[2-(6-methylpyridin-2-yl)-4H,5H,6H-pyrrolo[1,2-a]pyrazol-3-yl]quinoline]
> 20000	Clc1cc(-c2c(-c3ccccn3)nn3c2CCC3)c2ccccc2n1 [2-chloro-4-[2-(pyridin-2-yl)-4H,5H,6H-pyrrolo[1,2-a]pyrazol-3-yl]quinoline]
24	CN(C)CCCCCOc1ccc2c(-c3c(-c4ccccn4)nn4c3CCC4)ccnc2c1 [dimethyl[5-({4-[2-(pyridin-2-yl)-4H,5H,6H-pyrrolo[1,2-a]pyrazol-3-yl]quinolin-7-yl}oxy)pentyl]amine]
80	c1ccc(-c2nn3c(c2-c2ccnc4cc(OCC5CCCO5)ccc24)CCC3)nc1 (stereo not given) [7-(oxolan-2-ylmethoxy)-4-[2-(pyridin-2-yl)-4H,5H,6H-pyrrolo[1,2-a]pyrazol-3-yl]quinoline]
403	COC(=O)c1ccc2nccc(-c3c(-c4cccc(C)n4)nn4c3CCC4)c2c1 [methyl 4-[2-(6-methylpyridin-2-yl)-4H,5H,6H-pyrrolo[1,2-a]pyrazol-3-yl]quinoline-6-carboxylate]
> 20000	c1ccc(-c2nn3c(c2-c2cc(N4CCCC4)nc4ccccc24)CCC3)nc1 [4-[2-(pyridin-2-yl)-4H,5H,6H-pyrrolo[1,2-a]pyrazol-3-yl]-2-(pyrrolidin-1-yl)quinoline]
66	ClCCOc1ccc2c(-c3c(-c4ccccn4)nn4c3CCC4)ccnc2c1 [7-(2-chloroethoxy)-4-[2-(pyridin-2-yl)-4H,5H,6H-pyrrolo[1,2-a]pyrazol-3-yl]quinoline]
7200	COc1cc(OC)c2nccc(-c3c(-c4cccc(C)n4)nn4c3CCC4)c2c1 [6,8-dimethoxy-4-[2-(6-methylpyridin-2-yl)-4H,5H,6H-pyrrolo[1,2-a]pyrazol-3-yl]quinoline]
> 20000	CCSc1cc(-c2c(-c3ccccn3)nn3c2CCC3)c2ccccc2n1 [2-(ethylsulfanyl)-4-[2-(pyridin-2-yl)-4H,5H,6H-pyrrolo[1,2-a]pyrazol-3-yl]quinoline]
468	Cc1cccc(-c2nn3c(c2-c2ccnc4ccc(C(=O)NCCN(C)C)cc24)CCC3)n1 [N-[2-(dimethylamino)ethyl]-4-[2-(6-methylpyridin-2-yl)-4H,5H,6H-pyrrolo[1,2-a]pyrazol-3-yl]quinoline-6-carboxamide]
200	Oc1ccc2c(-c3c(-c4ccccn4)nn4c3CCC4)ccnc2c1 [4-[2-(pyridin-2-yl)-4H,5H,6H-pyrrolo[1,2-a]pyrazol-3-yl]quinolin-7-ol]
61	CCN(C)CCOc1ccc2c(-c3c(-c4ccccn4)nn4c3CCC4)ccnc2c1 [ethyl(methyl)[2-({4-[2-(pyridin-2-yl)-4H,5H,6H-pyrrolo[1,2-a]pyrazol-3-yl]quinolin-7-yl}oxy)ethyl]amine]
15000	CN(C)C(=O)c1ccc(Oc2ccc3c(-c4c(-c5ccccn5)nn5c4CCC5)ccnc3c2)cc1 [N,N-dimethyl-4-({4-[2-(pyridin-2-yl)-4H,5H,6H-pyrrolo[1,2-a]pyrazol-3-yl]quinolin-7-yl}oxy)benzamide]
> 20000	O=C(O)c1ccc(Oc2ccc3c(-c4c(-c5ccccn5)nn5c4CCC5)ccnc3c2)cc1 [4-({4-[2-(pyridin-2-yl)-4H,5H,6H-pyrrolo[1,2-a]pyrazol-3-yl]quinolin-7-yl}oxy)benzoic acid]
951	Cc1cccc(-c2nn3c(c2-c2ccnc4c(F)cccc24)CCC3)n1 [8-fluoro-4-[2-(6-methylpyridin-2-yl)-4H,5H,6H-pyrrolo[1,2-a]pyrazol-3-yl]quinoline]

SMILES	EC50 [nM]
CN1CCN(CCOc2ccc3c(-c4c(-c5ccccn5)nn5c4CCC5)ccnc3c2)CC1 [7-[2-(4-methylpiperazin-1-yl)ethoxy]-4-[2-(pyridin-2-yl)-4H,5H,6H-pyrrolo[1,2-a]pyrazol-3-yl]quinoline]	38
CN1CCCC1CCCOc1ccc2c(-c3c(-c4ccccn4)nn4c3CCC4)ccnc2c1 (stereo not given) [7-[3-(1-methylpyrrolidin-2-yl)propoxy]-4-[2-(pyridin-2-yl)-4H,5H,6H-pyrrolo[1,2-a]pyrazol-3-yl]quinoline]	17
CN1CCN(C(=O)COc2ccc3c(-c4c(-c5ccccn5)nn5c4CCC5)ccnc3c2)CC1 [1-(4-methylpiperazin-1-yl)-2-({4-[2-(pyridin-2-yl)-4H,5H,6H-pyrrolo[1,2-a]pyrazol-3-yl]quinolin-7-yl}oxy)ethan-1-one]	260
CN1CCN(CCCOc2ccc3c(-c4c(-c5ccccn5)nn5c4CCC5)ccnc3c2)CC1 [7-[3-(4-methylpiperazin-1-yl)propoxy]-4-[2-(pyridin-2-yl)-4H,5H,6H-pyrrolo[1,2-a]pyrazol-3-yl]quinoline]	44
